Test results published in article PMC11817512, “In Slico Screening and In Vitro Identification of Hyperuricemia-Inhibiting Peptides from Trachurus japonicus” (Foods, 2025).
Where a SMILES comes first, the peptide text is derived from it. Where no end group is shown, it is not given here.

What was measured:
XOD = molecular target: T1, XOD (Bos taurus, UniProt P80457); experiment: In vitro XOD inhibitory assay; format: biochemical; conditions: XOD from milk, xanthine substrate, PBS pH 7.4, 37 °C, absorbance 295 nm, mean ± SD, n = 3; as restated in section 3.5.1; read-out: IC50 for XOD (three-decimal values)
T1 construct: Xanthione oxidase (XOD) from milk; purchased Solarbio Co., Ltd. (Beijing, China); host or cells: milk
T1 sequence (P80457 whole entry): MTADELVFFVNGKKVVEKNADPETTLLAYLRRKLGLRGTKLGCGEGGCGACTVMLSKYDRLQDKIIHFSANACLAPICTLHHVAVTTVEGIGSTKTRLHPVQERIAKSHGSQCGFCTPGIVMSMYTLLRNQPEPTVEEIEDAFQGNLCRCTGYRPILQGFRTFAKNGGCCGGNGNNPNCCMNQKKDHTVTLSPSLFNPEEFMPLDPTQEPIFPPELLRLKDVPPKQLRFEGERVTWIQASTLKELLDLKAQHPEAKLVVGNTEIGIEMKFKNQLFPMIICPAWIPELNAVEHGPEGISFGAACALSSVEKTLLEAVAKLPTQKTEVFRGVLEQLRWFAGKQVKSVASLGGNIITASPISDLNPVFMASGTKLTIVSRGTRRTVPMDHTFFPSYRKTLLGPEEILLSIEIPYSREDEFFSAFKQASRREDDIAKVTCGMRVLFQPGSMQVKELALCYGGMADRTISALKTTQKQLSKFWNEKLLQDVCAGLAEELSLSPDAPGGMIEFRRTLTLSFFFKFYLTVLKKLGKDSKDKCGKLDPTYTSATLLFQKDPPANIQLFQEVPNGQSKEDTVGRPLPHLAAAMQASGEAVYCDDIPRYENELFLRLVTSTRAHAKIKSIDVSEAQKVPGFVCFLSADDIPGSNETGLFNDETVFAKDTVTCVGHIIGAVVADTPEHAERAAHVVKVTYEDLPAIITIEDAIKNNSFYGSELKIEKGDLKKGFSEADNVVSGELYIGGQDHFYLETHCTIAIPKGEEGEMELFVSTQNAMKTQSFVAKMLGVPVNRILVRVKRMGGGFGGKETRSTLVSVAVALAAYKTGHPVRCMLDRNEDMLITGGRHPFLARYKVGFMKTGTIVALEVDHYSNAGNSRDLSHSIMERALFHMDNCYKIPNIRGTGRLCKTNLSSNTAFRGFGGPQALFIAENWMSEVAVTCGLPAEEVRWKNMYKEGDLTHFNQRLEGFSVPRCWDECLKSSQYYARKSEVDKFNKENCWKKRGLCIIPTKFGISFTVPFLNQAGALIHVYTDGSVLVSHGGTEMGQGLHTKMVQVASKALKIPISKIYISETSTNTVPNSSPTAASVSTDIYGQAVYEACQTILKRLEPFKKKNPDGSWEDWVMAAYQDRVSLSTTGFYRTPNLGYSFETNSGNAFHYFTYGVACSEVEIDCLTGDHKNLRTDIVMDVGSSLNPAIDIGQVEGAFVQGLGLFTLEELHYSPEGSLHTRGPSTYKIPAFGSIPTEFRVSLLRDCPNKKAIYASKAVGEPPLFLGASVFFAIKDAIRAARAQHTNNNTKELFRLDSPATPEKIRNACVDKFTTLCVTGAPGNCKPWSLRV
Description: Xanthione oxidase (XOD) from milk, 1,1-Diphenyl-2-picrylhydrazyl (DPPH), 2,2′-azino-bis(3-ethylbenzothiazoline-6-sulfonic acid) (ABTS), a xanthine oxidase assay kit, and glutathione (GSH) were purchased from Solarbio Co., Ltd. (Beijing, China). Allopurinol was purchased from Aladdin Co. Ltd. (Shanghai, China). UA was purchased from Sigma-Aldrich Co. LLC. (St. Louis, MO, USA). A Cell Counting Kit-8 (CCK-8) was obtained from APExBIO Technology LLC. (Houston, TX, USA). Other chemicals were provided by Sinopharm Chemical Reagent Co., Ltd. (Shanghai, China) and were of analytical grade.
The in vitro XOD inhibitory assay was carried out by adopting the approach of Zhao et al., with minor alterations. Xanthine and XOD were, respectively, dissolved in phosphate-buffered solution (PBS, with a pH value of 7.4) at concentrations of 1.5 mM and 0.1 U/mL. Peptides of different concentrations (10, 20, 40, 80, and 160 mM) were dissolved in the PBS. A total of 120 μL of the sample solution, 150 μL of PBS, and 100 μL of XOD solution were combined and allowed to react thoroughly at 37 °C for 15 min. Subsequently, 120 μL of xanthine solution was added and the reaction was continued for an additional 20 min. Eventually, 150 μL of 1 M HCl was added to halt further enzymatic activity, and the absorbance was determined at 295 nm by means of an ultraviolet spectrophotometer (TU-1810PC, Purkinje, Beijing, China). The XOD inhibition rate was calculated according to Equation (1).XOD inhibition rate (%) = [1 − (A1 − A3)/(A2 − A4)] × 100%(1) where A1 is the absorbance after the mixed reaction of the inhibitor, XOD, and xanthine; A2 is the absorbance after the reaction of xanthine and XOD without adding the inhibitor; A3 is the absorbance of the sample and xanthine without adding XOD; and A4 is the absorbance of the xanthine solution without adding XOD and the inhibitor. […]

HK-2 cells [1] = tested on: HK-2 cells
Description: HK-2 cells were procured from the National Collection of Authenticated Cell Cultures (SCSP-511, Shanghai, China). The cytotoxicity of the peptides was appraised through a CCK-8 assay in line with the methodology of Gan, Cao, Cai, Xiang, Li, and Luan [30]. HK-2 cells were inoculated in 96-well plates (3 × 10^4 cells per well) and cultivated in Dulbecco’s Modified Eagle Medium (DMEM; provided by Life Technologies Corp., New York, NY, USA) supplemented with 10% fetal bovine serum (FBS; from Life Technologies Corp., New York, NY, USA) at 37 °C in an atmosphere containing 5% CO2 for a duration of 24 h. Peptides were introduced into the wells, and, following a 24 h incubation period, 10 μL of CCK-8 reagent was added to each well and incubated for 1 h. The absorbance was gauged at 450 nm using a microplate reader (Spark, Tecan, Austria).

HK-2 cells [2] = experiment: Uric acid (UA) level in hyperuricemia HK-2 cell model; format: cell-based; conditions: 24 h, then 2.5 mM adenosine 30 h and XOD 12 h, n = 3
Description: The cell modeling process was carried out by following the method of Mao et al., with certain modifications. HK-2 cells were cultured in DMEM supplemented with 10% FBS at 37 °C under a 5% CO2 environment for 24 h. […] The control group and the model group were also cultured in the medium for the same period of time. Subsequently, the experimental group, the positive group, and the model group were incubated with 2.5 mM adenosine for 30 h and then further incubated with XOD (at a concentration of 0.005 U/mg) for 12 h. The content and concentration of UA in the cell supernatant were measured using a XOD assay kit.

URAT1 = URAT1 urate transport / protein expression at the cellular level (Western blot); format: cell-based; conditions: HK-2 cells
Description: (§1) The protein expressions of URAT1 and GLUT9 within cells were detected by means of Western blot, in accordance with the method of Mao, Jiang, and Mao [32]. The primary antibodies were as follows: URAT1 (1:1000; Cat#14937-1AP; Proteintech, Wuhan, China), GLUT9 (1:1000; Cat#ab223470; Abcam, Shanghai, China), and β-actin (1:5000; Cat#ab6276; Abcam). The secondary antibodies were as follows: Goat Anti-Mouse IgG H&L (HRP) (Cat#ab205719; Abcam) and Goat Anti-Rabbit IgG H&L (HRP) (Cat#ab6721; Abcam). The protein levels were quantitatively gauged using ImageJ software (1.8.0.112).

GLUT9 = GLUT9 urate transport / protein expression at the cellular level (Western blot); format: cell-based; conditions: HK-2 cells
Description: as §1

C[C@H](N)C(=O)NCC(=O)N[C@@H](Cc1ccccc1)C(=O)O [AGF] (H-Ala-Gly-Phe-OH)
IC50 (XOD): 48.6 ± 9.95 mM
cell viability of HK-2 at higher doses (HK-2 cells [1]): slight reductions in cell viability

N[C@@H](CC(=O)O)C(=O)N[C@@H](Cc1ccccc1)C(=O)O [DF] (H-Asp-Phe-OH; N-terminus and C-terminus assumed)
reduction of UA levels in HK-2 cells, peptides (HK-2 cells [2]; peptide 4 mM (section 3.4)): 45.57%
reduction of urate transport by URAT1 in cells (URAT1): can curtail the transport of urate by URAT1 in cells
reduction of urate transport by GLUT9 in cells (GLUT9): can effectively diminish the transport of urate by GLUT9 within cells
cell viability of HK-2 at higher doses (HK-2 cells [1]): slight reductions in cell viability

Oc1ncnc2[nH]ncc12 [allopurinol, reference compound]
reduction of UA levels in HK-2 cells, allopurinol (HK-2 cells [2]; 0.1 mM allopurinol): 52.25%

NC(=O)CC[C@H](N)C(=O)N1CCC[C@H]1C(=O)N[C@@H](CO)C(=O)N[C@@H](Cc1ccccc1)C(=O)O [QPSF] (H-QPSF-OH)
IC50 (XOD): 38.4 ± 7.25 mM
cell viability of HK-2 at higher doses (HK-2 cells [1]): slight reductions in cell viability

AGDDAPR [AGDDAPR]
IC50 (XOD): 66 ± 10.9 mM
cell viability of HK-2 at higher doses (HK-2 cells [1]): slight reductions in cell viability
